Reference: patent US20250127828A1, “BACILLUS […] AND COMPOSITION FOR PREVENTING, TREATING, OR IMPROVING TU[…] SAME” (priority 2023, published 2025)

How the values were obtained:
[1] = test system: M. tuberculosis XDR strain; assay type: cell-based, Mycobacterium tuberculosis; settings: infected Raw 264.7 cells, 3 days; effect only at this very high concentration
[2] = test system: M. tuberculosis XDR strain; assay type: in vivo, Mycobacterium tuberculosis
M. tuberculosis H37Rv = assay: In vitro macrophage infection model, H37Rv, CFU analysis; assay type: cell-based, Mycobacterium tuberculosis; settings: infected Raw 264.7 cells, 3 days
M. tuberculosis = assay: Lung granuloma formation and immune response analysis in both tuberculosis mouse models; assay type: in vivo, Mycobacterium tuberculosis
[3] = test system: M. tuberculosis XDR strain; assay type: in vivo, Mycobacterium tuberculosis; settings: latent model, 30 mg/kg

Compound | concentration with inhibitory effect against XDR strains [1] [µg/mL] | survival rate ([2]; in vivo) [%] | concentration showing significant effects against H37Rv (M. tuberculosis H37Rv) | granuloma formation in the lungs compared to infected control mice (M. tuberculosis) | effect on number of M. tuberculosis in the lungs [3] | lung species diversity (Shanon-based alpha diversity) ([2]; in vivo) | occupancy of M. tuberculosis in the lungs (16S rRNA gene-based lung metagenomics) compared to the infected control group ([2]; in vivo) | mortality / survival until the end of the experiment ([2]; Balb/c mice, high-dose XDR lung inhalation, probiotics by lung inhalation)
CO[C@H]1/C=C/O[C@@]2(C)Oc3c(C)c(O)c4c(O)c(c(/C=N/N5CCN(C)CC5)c(O)c4c3C2=O)NC(=O)/C(C)=C\C=C\[C@H](C)[C@H](O)[C@@H](C)[C@@H](O)[C@@H](C)[C@H](OC(C)=O)[C@@H]1C [RIF, rifampicin] | 100 | 32.2 |  |  |  |  |  | 
NNC(=O)c1ccncc1 [INH, isoniazid] | 100 | 16.6 | 1 μg/mL or 10 μg/mL | no significant reduction | significantly reduced | worsened the severity | did not decrease | 
Lactobacillus |  |  |  |  |  |  |  | died
